The supplement of paper PMC6045584
± gives the standard deviation of the averaged measurements.

Assays:
[1] = compound: CN(C)CC[C@H](CSc1ccccc1)Nc1ccc(S(=O)(=O)NC(=O)c2ccc(N3CCN(Cc4ccccc4-c4ccc(Cl)cc4)CC3)cc2)cc1[N+](=O)[O-] [ABT-737]; experiment: surviving fraction relative to DMSO-only wells; higher = less growth inhibition; details: exposure time: 5 days
How it was run: (§1)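 Lines were retained only if, across three screens, replicate Pearson r was >0.7 and median Z' was >0.3. Viability was measured as CellTiter-Glo luminescence and reported as surviving fraction relative to the median of DMSO-only wells. Readings followed 10 minutes at room temperature, after log-phase tumour cells seeded at 250–500 per well in 384-well plates had been exposed, from 24 hours after seeding, continuously for five days to inhibitors at 0.5, 1, 5, 10, 50, 100, 500 and 1000 nM.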

[2] = compound: CS(=O)(=O)CCNCc1ccc(-c2ccc3ncnc(Nc4ccc(OCc5cccc(F)c5)c(Cl)c4)c3c2)o1 [LAPATINIB]; experiment: as above; details: exposure time: 5 days
How it was run: as §1

Row | Test System | surviving fraction ([1]; 0.5 nM) | surviving fraction ([1]; 1 nM) | surviving fraction ([1]; 5 nM) | surviving fraction ([1]; 10 nM) | surviving fraction ([1]; 50 nM) | surviving fraction ([1]; 100 nM) | surviving fraction ([1]; 500 nM) | surviving fraction ([1]; 1000 nM) | surviving fraction ([2]; 0.5 nM) | surviving fraction ([2]; 1 nM) | surviving fraction ([2]; 5 nM) | surviving fraction ([2]; 10 nM) | surviving fraction ([2]; 50 nM) | surviving fraction ([2]; 100 nM) | surviving fraction ([2]; 500 nM) | surviving fraction ([2]; 1000 nM)
1 | SCC36 HEADNECK | 1.08 ± 0.18 | 1.03 ± 0.054 | 1.15 ± 0.028 | 1.13 ± 0.056 | 1.14 ± 0.14 | 1.12 ± 0.061 | 0.897 ± 0.035 | 0.924 ± 0.11 | 1.03 ± 0.067 | 1.1 ± 0.089 | 1.08 ± 0.062 | 1.11 ± 0.051 | 0.918 ± 0.049 | 0.883 ± 0.067 | 0.543 ± 0.051 | 0.394 ± 0.043
2 | SCC47 HEADNECK | 1.14 ± 0.033 | 1.13 ± 0.13 | 1.23 ± 0.09 | 1.25 ± 0.05 | 1.24 ± 0.087 | 1.2 ± 0.055 | 1.1 ± 0.053 | 1.14 ± 0.12 | 1.09 ± 0.1 | 1.1 ± 0.016 | 1.09 ± 0.011 | 1.18 ± 0.033 | 1.05 ± 0.044 | 1.05 ± 0.072 | 0.82 ± 0.041 | 0.705 ± 0.053
3 | SCC90 HEADNECK | 1.05 ± 0.077 | 1.05 ± 0.11 | 1.14 ± 0.12 | 1.14 ± 0.073 | 1.09 ± 0.046 | 1.11 ± 0.097 | 0.949 ± 0.05 | 0.853 ± 0.087 | 1.02 ± 0.038 | 1.01 ± 0.1 | 1.01 ± 0.087 | 0.971 ± 0.04 | 0.845 ± 0.037 | 0.802 ± 0.067 | 0.532 ± 0.015 | 0.508 ± 0.023
4 | SG27 HEADNECK | 1.26 ± 0.26 | 1.12 ± 0.12 | 1.19 ± 0.029 | 1.16 ± 0.079 | 1.15 ± 0.11 | 1.08 ± 0.13 | 0.88 ± 0.11 | 0.797 ± 0.059 | 1.09 ± 0.081 | 1.09 ± 0.056 | 1.1 ± 0.27 | 1.18 ± 0.17 | 0.977 ± 0.14 | 1.04 ± 0.067 | 0.988 ± 0.026 | 1.06 ± 0.06
5 | SG28 HEADNECK | 1.25 ± 0.068 | 1.17 ± 0.064 | 1.02 ± 0.07 | 1.081 ± 0.0014 | 1.036 ± 0.0064 | 1.09 ± 0.021 | 1.13 ± 0.14 | 1.04 ± 0.016 | 0.979 ± 0.1 | 1.07 ± 0.03 | 0.851 ± 0.11 | 1.03 ± 0.042 | 0.764 ± 0.043 | 0.775 ± 0.079 | 0.599 ± 0.057 | 0.563 ± 0.021
6 | SG31 HEADNECK | 1.2 ± 0.19 | 1.51 ± 0.051 | 1.08 ± 0.21 | 1.04 ± 0.025 | 1.03 ± 0.18 | 1.2 ± 0.27 | 1.27 ± 0.25 | 1.12 ± 0.11 | 1.17 ± 0.26 | 1.05 ± 0.18 | 0.799 ± 0.1 | 0.948 ± 0.093 | 0.699 ± 0.084 | 1.02 ± 0.27 | 0.775 ± 0.23 | 0.846 ± 0.21
7 | SG32 HEADNECK | 1.02 ± 0.13 | 0.981 ± 0.024 | 1.04 ± 0.11 | 1.17 ± 0.15 | 0.963 ± 0.025 | 1.23 ± 0.51 | 1.07 ± 0.0099 | 0.954 ± 0.045 | 1.05 ± 0.22 | 1.02 ± 0.1 | 1.07 ± 0.14 | 1.12 ± 0.17 | – | 1.67 ± 0.82 | 0.905 ± 0.23 | 0.801 ± 0.18
8 | SG43 HEADNECK | 0.947 ± 0.12 | 1.06 ± 0.25 | 0.889 ± 0.076 | 0.875 ± 0.057 | 0.769 ± 0.14 | 0.801 ± 0.069 | 0.656 ± 0.24 | 0.752 ± 0.34 | 0.869 ± 0.17 | 0.93 ± 0.22 | 0.84 ± 0.095 | 0.821 ± 0.067 | 0.711 ± 0.23 | 0.494 ± 0.12 | 0.304 ± 0.011 | 0.314 ± 0.13
9 | SIHA CERVIX | 1.02 ± 0.017 | 1.1 ± 0.052 | 1.12 ± 0.033 | 1.08 ± 0.14 | 1.14 ± 0.056 | 1.2 ± 0.087 | 1.19 ± 0.056 | 1.14 ± 0.043 | 1.05 ± 0.033 | 1.14 ± 0.021 | 1.06 ± 0.02 | 1.11 ± 0.037 | 1.03 ± 0.031 | 1.02 ± 0.086 | 1.05 ± 0.06 | 1.1 ± 0.042
10 | SJSA1 BONE | 1.59 ± 0.063 | 1.68 ± 0.045 | 1.63 ± 0.06 | 1.72 ± 0.049 | 1.66 ± 0.078 | 1.81 ± 0.12 | 1.74 ± 0.045 | 1.81 ± 0.14 | 1.471 ± 0.007 | 1.67 ± 0.035 | 1.67 ± 0.09 | 1.72 ± 0.04 | 1.62 ± 0.095 | 1.47 ± 0.077 | 1.42 ± 0.022 | 1.75 ± 0.037
11 | SKBR3 BREAST | 1.04 ± 0.035 | 1.03 ± 0.07 | 0.988 ± 0.13 | 1.19 ± 0.13 | 0.976 ± 0.071 | 1.15 ± 0.09 | 1.01 ± 0.14 | 1.13 ± 0.13 | 1.07 ± 0.057 | 1.06 ± 0.04 | 1.12 ± 0.12 | 1.01 ± 0.054 | 0.697 ± 0.026 | 0.508 ± 0.03 | 0.233 ± 0.014 | 0.171 ± 0.021
12 | SNU475 LIVER | 1.07 ± 0.017 | 1 ± 0.018 | 1.08 ± 0.083 | 1.05 ± 0.064 | 1.02 ± 0.039 | 1 ± 0.12 | 1.01 ± 0.061 | 0.972 ± 0.047 | 1.01 ± 0.013 | 1.03 ± 0.04 | 1.01 ± 0.027 | 0.992 ± 0.035 | 0.953 ± 0.042 | 1 ± 0.041 | 0.987 ± 0.047 | 0.954 ± 0.04
13 | SUM44 BREAST | 1.28 ± 0.43 | 1.31 ± 0.53 | 1.32 ± 0.44 | 1.3 ± 0.53 | 1.28 ± 0.48 | 1.25 ± 0.48 | 1.2 ± 0.42 | 1.1 ± 0.34 | 1.05 ± 0.069 | 1.11 ± 0.19 | 1.11 ± 0.066 | 1.17 ± 0.21 | 1.04 ± 0.045 | 1.21 ± 0.17 | 1.08 ± 0.07 | 1.24 ± 0.18
14 | SUM149 BREAST | 1.02 ± 0.036 | 1.07 ± 0.023 | 1.1 ± 0.061 | 1.08 ± 0.051 | 0.952 ± 0.058 | 1.07 ± 0.075 | 0.97 ± 0.049 | 0.961 ± 0.056 | 0.945 ± 0.078 | 0.988 ± 0.11 | 0.943 ± 0.043 | 0.889 ± 0.12 | 0.741 ± 0.046 | 0.656 ± 0.019 | 0.492 ± 0.018 | 0.424 ± 0.047
15 | SUM149.B1*.S BREAST | 1.13 ± 0.027 | 1.1 ± 0.072 | 1.16 ± 0.021 | 1.12 ± 0.034 | 1.12 ± 0.057 | 1.11 ± 0.069 | 1.1 ± 0.024 | 1.16 ± 0.055 | 1.08 ± 0.049 | 1.23 ± 0.033 | 1.12 ± 0.023 | 1.11 ± 0.026 | 0.995 ± 0.06 | 1.07 ± 0.057 | 1.09 ± 0.035 | 1.05 ± 0.038
16 | SUM159 BREAST | 1.1 ± 0.018 | 1.1 ± 0.028 | 1.12 ± 0.027 | 1.09 ± 0.026 | 1.095 ± 0.006 | 1.09 ± 0.021 | 1.11 ± 0.018 | 1.08 ± 0.014 | 1.08 ± 0.022 | 1.13 ± 0.018 | 1.1 ± 0.037 | 1.07 ± 0.014 | 1.06 ± 0.029 | 1.1 ± 0.036 | 1.043 ± 0.01 | 1.03 ± 0.013
